This assay deals with Tie-2 (Homo sapiens, UniProt Q02763). The experiment in a line: Tie-2 tyrosine kinase activity: kinase-dependent ATP consumption (pEY substrate, luciferase/luciferin chemiluminescence) or 33P-ATP incorporation into substrate. It is filed as biochemical. The following applies: Tie-2 (human enzyme) inhibition, Table 2, class symbols A-D. As for the experimental part: One measure of inhibition is Ki. […] The Ki for a compound is determined from the IC50 based on three assumptions. First, only one compound molecule binds to the enzyme and there is no cooperativity. […] Third, the enzymatic rate of the enzyme-inhibitor complex is zero. The rate (i.e., compound concentration) data are fitted to the equation:
[formula] where V is the observed rate, Vmax, is the rate of the free enzyme, I0 is the inhibitor concentration, E0 is the enzyme concentration, and Kd is the dissociation constant of the enzyme-inhibitor complex.
Tyrosine kinase activity is determined by 1) measurement of kinase-dependent ATP consumption by in the presence of a generic substrate such as polyglutamine, tyrosine (pEY), by luciferase/luciferin-mediated chemiluminescence or; 2) incorporation of radioactive phosphate derived from ^33P-ATP into a generic substrate which has been absorbed onto the well surface of polystyrene microtiter plates. Phosphorylated substrate products are quantified by scintillation spectrometry.
Inhibition is indicated as IC50 with following key: A=IC50 less than 50 nM, B=IC50 greater than 50 nM, but less than or equal to 1000 nM, C=IC50 greater than 1000 nM, but less than 10,000 nM, and D=IC50 10,000 nM or greater. The abbreviation for human enzyme, Tie-2, is defined as tyrosine kinase with immunoglobulin and EGF repeats.
Sequence of Tie-2 (Q02763 23-1124): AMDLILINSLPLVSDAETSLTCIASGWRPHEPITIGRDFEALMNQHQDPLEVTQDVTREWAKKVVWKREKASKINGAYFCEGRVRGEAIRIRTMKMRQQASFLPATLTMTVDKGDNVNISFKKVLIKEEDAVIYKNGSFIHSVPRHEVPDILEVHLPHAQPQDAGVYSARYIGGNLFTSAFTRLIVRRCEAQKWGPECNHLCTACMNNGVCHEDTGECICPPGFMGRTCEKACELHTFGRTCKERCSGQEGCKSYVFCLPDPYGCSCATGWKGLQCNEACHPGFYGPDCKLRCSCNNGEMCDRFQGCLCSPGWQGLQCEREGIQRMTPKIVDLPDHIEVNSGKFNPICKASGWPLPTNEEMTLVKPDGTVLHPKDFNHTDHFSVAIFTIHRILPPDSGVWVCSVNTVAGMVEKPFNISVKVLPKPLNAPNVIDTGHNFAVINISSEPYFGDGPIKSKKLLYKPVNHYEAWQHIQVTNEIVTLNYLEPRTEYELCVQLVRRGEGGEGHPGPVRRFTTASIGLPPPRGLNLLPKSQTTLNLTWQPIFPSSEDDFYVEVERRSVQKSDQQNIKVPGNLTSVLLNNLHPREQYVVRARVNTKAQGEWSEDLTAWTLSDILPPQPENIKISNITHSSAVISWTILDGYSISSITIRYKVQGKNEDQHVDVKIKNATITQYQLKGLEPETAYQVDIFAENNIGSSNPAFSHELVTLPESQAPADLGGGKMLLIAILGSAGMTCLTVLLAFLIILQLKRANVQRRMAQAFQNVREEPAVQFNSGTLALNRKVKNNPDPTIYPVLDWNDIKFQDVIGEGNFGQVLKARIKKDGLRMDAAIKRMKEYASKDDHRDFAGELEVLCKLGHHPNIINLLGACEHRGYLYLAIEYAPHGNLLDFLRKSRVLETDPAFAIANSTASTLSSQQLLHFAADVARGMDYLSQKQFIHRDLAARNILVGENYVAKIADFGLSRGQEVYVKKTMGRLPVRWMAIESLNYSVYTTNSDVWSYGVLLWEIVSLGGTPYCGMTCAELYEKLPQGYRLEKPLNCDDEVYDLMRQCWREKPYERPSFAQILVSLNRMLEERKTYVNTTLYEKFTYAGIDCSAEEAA
For the molecule `COc1ccc(-c2nc(-c3ccccc3)nn2CCN(C(=O)Cc2cccc3ccccc23)C2CCCC2)cc1Cl` [Entry 32, N-(2-{5-[3-chloro-4-(methyloxy)phenyl]-3-phenyl-1H-1,2,4-triazol-1-yl}ethyl)-N-cyclopentyl-2-naphthalen-1-ylacetamide], the IC50 was at least 10000 nM.
Under `COc1ccc(-c2nc(-c3ccccc3)nn2CC(=O)NC2CCCC2)cc1Cl` [Entry 33, 2-{5-[3-chloro-4-(methyloxy)phenyl]-3-phenyl-1H-1,2,4-triazol-1-yl}-N-cyclopentylacetamide] stands at least 10000 nM.
The molecule `COc1ccc(-c2nc(-c3ccncc3)nn2CCNC(=O)Cc2cccc3ccccc23)cc1Cl` [Entry 34, N-(2-{5-[3-chloro-4-(methyloxy)phenyl]-3-pyridin-4-yl-1H-1,2,4-triazol-1-yl}ethyl)-2-naphthalen-1-ylacetamide] had an IC50 of 1000 to 10000 nM.
Under `COc1ccc(-c2nc(-c3ccncc3)n(CCN(C(=O)Cc3cccc4ccccc34)C(C)C)n2)cc1Cl` [Entry 35, N-(2-{3-[3-chloro-4-(methyloxy)phenyl]-5-pyridin-4-yl-1H-1,2,4-triazol-1-yl}ethyl)-N-(1-methylethyl)-2-naphthalen-1-ylacetamide] stands at least 10000 nM.
Under `COc1ccc(-c2nc(-c3ccncc3)nn2CCN(C(=O)Cc2cccc3ccccc23)C2CCCCC2)cc1Cl` [Entry 36, N-(2-{5-[3-chloro-4-(methyloxy)phenyl]-3-pyridin-4-yl-1H-1,2,4-triazol-1-yl}ethyl)-N-cyclohexyl-2-naphthalen-1-ylacetamide] stands below 50 nM.
Regarding `COc1ccc(-c2nc(-c3ccncc3)n(CCN(C(=O)Cc3cccc4ccccc34)C3CCCCC3)n2)cc1Cl` [Entry 37, N-(2-{3-[3-chloro-4-(methyloxy)phenyl]-5-pyridin-4-yl-1H-1,2,4-triazol-1-yl}ethyl)-N-cyclohexyl-2-naphthalen-1-ylacetamide], the IC50 was 50 to 1000 nM.
Consider `COc1ccc(-c2nc(-c3ccncc3)n(CCN(C(=O)Cc3cccc4ccccc34)C3CC3)n2)cc1Cl` [Entry 38, N-(2-{3-[3-chloro-4-(methyloxy)phenyl]-5-pyridin-4-yl-1H-1,2,4-triazol-1-yl}ethyl)-N-cyclopropyl-2-naphthalen-1-ylacetamide], for which the IC50 fell in the range of 50 to 1000 nM.
The result for `COc1ccc(-c2nc(-c3ccncc3)nn2CCN(C(=O)Cc2cccc3ccccc23)C2CCCC2)cc1` [Entry 39, N-cyclopentyl-N-(2-{5-[4-(methyloxy)phenyl]-3-pyridin-4-yl-1H-1,2,4-triazol-1-yl}ethyl)-2-naphthalen-1-ylacetamide] reads below 50 nM.
For `COc1ccc(-c2nc(-c3ccncc3)n(CCN(C(=O)Cc3cccc4ccccc34)C3CCCC3)n2)cc1` [Entry 40, N-cyclopentyl-N-(2-{3-[4-(methyloxy)phenyl]-5-pyridin-4-yl-1H-1,2,4-triazol-1-yl}ethyl)-2-naphthalen-1-ylacetamide], the IC50 is 1000 to 10000 nM.
The molecule `COc1ccc(-c2nc(-c3ccncc3)nn2CCN(C(=O)Cc2cccc3ccccc23)C2CCCC2)cc1OC` [Entry 41, N-(2-{5-[3,4-bis(methyloxy)phenyl]-3-pyridin-4-yl-1H-1,2,4-triazol-1-yl}ethyl)-N-cyclopentyl-2-naphthalen-1-ylacetamide] displayed an IC50 below 50 nM.
The result for `COc1ccc(-c2nc(-c3ccncc3)n(CCN(C(=O)Cc3cccc4ccccc34)C3CCCC3)n2)cc1OC` [Entry 42, N-(2-{3-[3,4-bis(methyloxy)phenyl]-5-pyridin-4-yl-1H-1,2,4-triazol-1-yl}ethyl)-N-cyclopentyl-2-naphthalen-1-ylacetamide] reads 50 to 1000 nM; that for `Cc1nc(-c2ccncc2)nn1CCN(C(=O)Cc1cccc2ccccc12)C1CCCC1` [Entry 43, N-cyclopentyl-N-[2-(5-methyl-3-pyridin-4-yl-1H-1,2,4,-triazol-1-yl)ethyl]-2-naphthalen-1-ylacetamide], below 50 nM.
As to `O=C(Cc1cccc2ccccc12)N(CCn1cnc(-c2ccncc2)n1)C1CCCC1` [Entry 44, N-cyclopentyl-2-naphthalen-1-yl-N-[2-(3-pyridin-4-yl-1H-1,2,4-triazol-1-yl)ethyl]acetamide], the IC50 is below 50 nM.
The result for `O=C(Cc1cccc2ccccc12)N(CCn1nc(-c2ccncc2)nc1-c1cccc(C(F)(F)F)c1)C1CCCC1` [Entry 45, N-cyclopentyl-2-naphthalen-1-yl-N-(2-{3-pyridin-4-yl-5-[3-(trifluoromethyl)phenyl]-1H-1,2,4-triazol-1-yl}ethyl)acetamide] reads below 50 nM; that for `O=C(Cc1cccc2ccccc12)N(CCn1nc(-c2cccc(C(F)(F)F)c2)nc1-c1ccncc1)C1CCCC1` [Entry 46, N-cyclopentyl-2-naphthalen-1-yl-N-(2-{5-pyridin-4-yl-3-[3-(trifluoromethyl)phenyl]-1H-1,2,4-triazol-1-yl}ethyl)acetamide], at least 10000 nM.
Take `O=C(Cc1cccc2ccccc12)N(CCn1nc(-c2ccncc2)nc1-c1cc(Cl)cc(Cl)c1)C1CCCC1` [Entry 47, N-cyclopentyl-N-{2-[5-(3,5-dichlorophenyl)-3-pyridin-4-yl-1H-1,2,4-triazol-1-yl]ethyl}-2-naphthalen-1-ylacetamide]: the IC50 was below 50 nM.
Under `COc1ccc(-c2nc(-c3ccncc3)nn2CCN(C(=O)Cc2ccc3ccccc3c2)C2CCCC2)cc1Cl` [Entry 48, N-(2-{5-[3-chloro-4-(methyloxy)phenyl]-3-pyridin-4-yl-1H-1,2,4-triazol-1-yl}ethyl)-N-cyclopentyl-2-naphthalen-2-ylacetamide] stands at least 10000 nM; under `O=C(Cc1cccc2ccccc12)N(CCc1n[nH]c(-c2ccncc2)n1)C1CCCC1` [Entry 49, N-cyclopentyl-2-naphthalen-1-yl-N-[2-(5-pyridin-4-yl-1H-1,2,4-triazol-3-yl)ethyl]acetamide], below 50 nM.
For the molecule `O=C(Cc1cccc2ccccc12)N(CCn1nc(-c2ccncc2)nc1-c1ccccc1)C1CCCC1` [Entry 50, N-cyclopentyl-2-naphthalen-1-yl-N-[2-(5-phenyl-3-pyridin-4-yl-1H-1,2,4-triazol-1-yl)ethyl]acetamide], the IC50 is below 50 nM.
Under `O=C(Cc1cccc2ccccc12)N(CCn1nc(-c2ccccc2)nc1-c1ccncc1)C1CCCC1` [Entry 51, N-cyclopentyl-2-naphthalen-1-yl-N-[2-(3-phenyl-5-pyridin-4-yl-1H-1,2,4-triazol-1-yl)ethyl]acetamide] stands 1000 to 10000 nM.
The result for `O=C(Cc1cccc2ccccc12)N(CCc1nc(-c2ccncc2)no1)C1CCCC1` [Entry 52, N-cyclopentyl-2-naphthalen-1-yl-N-[2-(3-pyridin-4-yl-1,2,4-oxadiazol-5-yl)ethyl]acetamide] reads 50 to 1000 nM.
Molecule `COc1ccc(-c2nc(-c3ccnc(Cl)c3)nn2CCN(C(=O)Cc2cccc3ccccc23)C2CCCC2)cc1Cl` [Entry 53, N-{2-[5-[3-chloro-4-(methyloxy)phenyl]-3-(2-chloropyridin-4-yl)-1H-1,2,4-triazol-1-yl]ethyl}-N-cyclopentyl-2-naphthalen-1-ylacetamide] yielded an IC50 of at least 10000 nM.
The result for `COc1ccc(-c2nc(-c3ccncc3)[nH]c2CCN(C(=O)Cc2cccc3ccccc23)C2CCCC2)cc1` [Entry 54, N-cyclopentyl-N-(2-{4-[4-(methyloxy)phenyl]-2-pyridin-4-yl-1H-imidazol-5-yl}ethyl)-2-naphthalen-1-ylacetamide] reads 50 to 1000 nM.

For orientation: IC50 means the concentration that gives 50% inhibition. Low readings indicate higher potency, high ones lower potency.
